Reference: patent US11597748B2, “Peptide having cytoprotective effect against environmental pollutant and use thereof” (CAREGEN CO., LTD., priority 2017, dated 2023)
No end group written: not given here.

Key:
[1] = system: CYP1A1, TNF-a, IL-6, IL-1b, COX-2 mRNA; assay: RT-PCR of CYP1A1 and inflammatory molecules induced by particulate matter; format: cell-based, human; details: HaCaT cells; 10 nM particulate matter; 50 μM peptide; 6 hours or 24 hours
Procedure: (§1) HaCaT cells, human keratinocyte cells, were seeded on a 6-well plate at a density of 3×10^5 cells/well and cultured overnight. Subsequently, 10 nM of particulate matter (PM) and 50 μM of the peptide consisting of an amino acid sequence of SEQ ID NO: 1, 2, or 3 were added to the culture medium. After 30 minutes of reaction, the cells were treated for 6 hours or 24 hours and collected to separate RNA therefrom. After quantifying RNA, cDNA was synthesized using a cDNA synthesis kit (Intron, Korea). Then, PCR was performed using a PCR PreMix kit (Intron, Korea) and a primer for each of CYP1A1, TNF-a, IL-6, IL-1b, and COX-2 shown in Table 5. Then, by running the resultant on a 5% agarose gel, the expression levels of mRNA of the growth factors were compared under the conditions of treating the respective samples, and the results are shown in FIGS. 7A to 7C.

[2] = system: CYP1A1, TNF-a, IL-6, IL-1b, COX-2 mRNA; assay: RT-PCR of CYP1A1 and inflammatory molecules induced by TCDD; format: cell-based, human; details: HaCaT cells; 10 nM TCDD; 50 μM peptide; 6 hours or 24 hours
Procedure: as §1, with “of TCDD” for “of particulate matter (PM)”, “Then, polymerase chain reaction (PCR)” for “Then, PCR”, “IL-6, IL-1 b,” for “IL-6, IL-1b,”, “Table 4.” for “Table 5.”, “FIGS. 5A” for “FIGS. 7A”, “to 5C.” for “to 7C.”

Substance | effect on expressions of CYP1A1 and inflammatory factors induced by particulate matter (in words) [1] | effect on expressions of CYP1A1 and inflammatory factors induced by TCDD (in words) [2]
DVENTS [SEQ ID NO: 3, DVENTS] | inhibiting expressions of CYP1 A1 and various inflammatory factors induced by particulate matter | inhibiting expressions of CYP1A1 and various inflammatory factors induced by TCDD
KWGGGRY [SEQ ID NO: 1, KWGGGRY] | inhibiting expressions of CYP1 A1 and various inflammatory factors induced by particulate matter | inhibiting expressions of CYP1A1 and various inflammatory factors induced by TCDD
ILGRWCG [SEQ ID NO: 2, ILGRWCG] | inhibiting expressions of CYP1 A1 and various inflammatory factors induced by particulate matter | inhibiting expressions of CYP1A1 and various inflammatory factors induced by TCDD
